Results reported in patent publication US10966995B2, “Use of secoisolariciresinol diglucosides (SDGS) and related compounds for protection against radiation and chemical damage” (THE TRUSTEES OF THE UNIVERSITY OF PENNSYLVANIA, priority 2014, dated 2021).

Experiments:
mouse RAW macrophages = experiment: Asbestos-induced ROS in RAW macrophages; format: cell-based
Method: SDG blunts asbestos-induced ROS secretion by human mesothelial cells in vitro (FIG. 50). Experimental plan for detecting asbestos-induced ROS in cells: (human mesothelial) HM cells or mouse macrophages plated in 20% DMEM for 24 hours; Added 20 μM DCF in HBSS for 1 hour; Supernatant replaced with 1% DMEM containing H2O2 (100 μM), asbestos (10 μg crocidolite/cm^2) and/or SDG (50 μM); and Fluorescence level monitored up to 36 hours post-initiation of asbestos exposure.
Asbestos-Induced Oxidative Stress (ROS release) in Culture RAW Macrophages was evaluated. Cells were treated with the ROS-sensitive dye H2DCFDA for 30 min and then they were exposed to vehicle to 40 μg/cm2 asbestos fibers, or 4 uM hypochlorite solution and fluorescence intensity was measured spectrophotometrically for 90, 150 minutes and 27 hours. Asbestos-induced ROS was generated shortly post asbestos exposure and continued for the duration of the observation period (FIG. 51).

[1] = system: murine primary lung cells (epithelial, endothelial and WT fibroblasts); experiment: Alkaline comet assay (DNA SSBs) in irradiated primary lung cells; format: cell-based, mouse; settings: 2 Gy
Method: (§1) Fibroblasts and endothelial cells were isolated from C57/bl6 mouse. For fibroblast isolation, mouse lungs were harvested, minced, and incubated with dispase (2 mg/ml) for 45 minutes. Pieces were plated out and fibroblasts were cultured as described previously and used between passages 3 and 10. Pulmonary microvascular endothelial cells (PMVEC) were isolated from murine lungs as described previously. Briefly, freshly harvested mouse lungs were treated with collagenase followed by isolation of cells by adherence to magnetic beads coated with mAb to platelet endothelial cell adhesion molecule (PECAM). Epithelial cells (C10) cells were originally derived from a normal BALB/c mouse lung explant and are non-tumorigenic, contact-inhibited, and have alveolar type 2 cell features at early passage.
Exponentially growing cells were cultured and treated with SDG (50 μM) at different time intervals prior to irradiation (2 Gy). Cells were processed for comet assay as per manufacturer's instructions (Trevigen, Gaithersburg, Md.). […] At least 150 cells were scored per group. Visual analysis of cells and comet tail length was measured using Comet Image Analysis software (Comet Assay IV, Perceptive Instruments Ltd, Haverhill, UK) Images were captured on an Olympus IX51 fluorescence microscope using a monochrome CCD FireWire camera.

[2] = system: murine primary lung endothelial cells; experiment: γ-H2AX foci immunostaining, endothelial cells; format: cell-based, mouse; settings: SDG 50 μM 6 h prior IR; 2 Gy; irradiated control 33.6% at 30 min
Method: as §1
For immunostaining of γ-H2AX, cells were plated on glass coverslips (5,000 cells/coverslip), pre-treated (6 h) with 50 μM SDG and irradiated (2 Gy). At desired time interval, cells were fixed (4% para-formaldehyde), washed and blocked with PBST (PBS+0.1% TritonX-100 containing 5% goat serum, 1% BSA). Cells were incubated with γ-H2AX primary antibody (1:200) overnight at 4° C. followed by washing with PBST (3×5 min) and incubation with secondary antibody (Alexa Fluor® 488, Invitrogen, Calif., USA) for 1 hr at RT. Nuclei were counterstained with DAPI and visualized under fluorescence microscope.

[3] = system: murine primary lung cells (epithelial cells, endothelial cells and WT fibroblasts); experiment: γ-H2AX flow cytometry (FACS) in irradiated primary lung cells; format: cell-based, mouse; settings: SDG 50 μM 6 h pre-treatment; 2 Gy; all cell types
Method: as §1
For FACS analysis, cells were trypsinized and washed with PBS. Cells were then fixed (Fix/Perm buffer, eBioscience), for 45 minutes and washed thereafter using permeabilization wash buffer (BioLegend, USA). […] Cells were washed again with wash buffer and analyzed. The CyAn ADP (Advanced Digital Processing) flow cytometer (Dako, Denmark) Coulter, Fullerton, Calif.) was used to measure γ-H2AX and positive cells were quantified using Summit Software (Dako, Denmark).

human epithelial cells = experiment: BaP-induced DNA adduct formation; format: cell-based; settings: given alone or in combination
Source text: Similarly, SDG prevents genotoxic stress in human epithelial cells exposed to BaP. Exposure of cells to a potent carcinogen such as BaP, induces genotoxic stress as indicated by increased levels of p53 protein (FIG. 25). […] SDG also prevents oxidative DNA damages in human epithelial cells exposed to BaP. Exposure of cells to a potent carcinogen such as BaP, induces oxidative DNA damage as indicated by increased levels of gamma-H2AX, a marker for double-stranded DNA breaks (FIG. 26). […] Furthermore, SDG prevents DNA adduct formation in human epithelial cells exposed to BaP. Exposure of cells to a potent carcinogen such as BaP, induces the formation of DNA adducts (FIG. 27). DNA adducts are pieces of DNA covalently linked to a carcinogen and is directly linked to the development of malignancy. The DNA adduct levels is decreased by the presence of SDG or its metabolites ED and EL given alone or in combination.

[4] = system: Nrf2-regulated antioxidant enzymes (AOE); experiment: SDG dosing study: antioxidant enzyme expression in lung after oral gavage; format: in vivo, mouse
Method: SDG doses of 5, 25, 50 and 100 mg/Kg body weight were administered orally to mice (n=5 per dose) and 4 hours later tissues were collected for analysis. Plasma concentrations of SDG and its bioactive metabolites ED, EL and SECO were analyzed by liquid chromatography and mass spectrometry and are expressed in ng/mL (FIG. 39) while gene expression levels of Nrf2-regulated antioxidant enzymes (AOE), an intracellular target of SDG and its metabolites, were determined in lung tissues from the same animals using qRT-PCR (FIG. 40). Gene expression levels of HO1, NQO1 and GST, increased 2-3 fold with as little as 5 mg SDG/Kg and reached an average of 6-fold increase over baseline with 100 mg/Kg SDG.

Question: For COc1cc(C[C@@H](CO[C@@H]2O[C@H](CO)[C@@H](O)[C@H](O)[C@H]2O)[C@H](CO[C@@H]2O[C@H](CO)[C@@H](O)[C@H](O)[C@H]2O)Cc2ccc(O)c(OC)c2)ccc1O [SDG, secoisolariciresinol diglucoside], which “Asbestos-induced ROS” value (mouse RAW macrophages) is on record?
Answer: Its value is “blocks asbestos-induced ROS”.

Question: What about the “Radiation-induced comet tail length” value ([1]; SDG 50 μM pre-treatment at all time intervals, all three cell types) of the same molecule?
Answer: The value was “significantly inhibited”.

Question: And the “Pre-treatment time giving maximum protection against radiation-induced tail moment” value ([1]; SDG 50 μM, all cell types)?
Answer: Its value is 6 h.

Question: What about the γ-H2AX positive cells [2] of the same molecule?
Answer: The γ-H2AX positive cells was 21.92%±2.88.

Question: What about the “Number of γ-H2AX positive cells (flow cytometry)” value [3] of the same molecule?
Answer: The value was “significantly abrogated”.

Question: What about the DNA adduct levels (human epithelial cells) of the same molecule?
Answer: Its DNA adduct levels is “decreased”.

Question: And the “Gene expression levels of HO1, NQO1 and GST in lung, increase” value ([4]; 5 mg SDG/Kg oral, 4 hours)?
Answer: The value was 2-3 fold.

Question: What about the “Gene expression levels of HO1, NQO1 and GST in lung, average increase over baseline” value ([4]; 100 mg/Kg SDG oral, 4 hours) of the same molecule?
Answer: Its value is 6 fold.

Question: And the “Protein levels in lung tissues” value ([4]; oral SDG dosing study)?
Answer: Its value is “lower but yet significant increase”.
